In patent US6358885B1, “Substituted phenylheterocyclic herbicides” (Mississippi State University, priority 1992, dated 2002):

Tests used:
Test in all cases: Test B preemergence/postemergence greenhouse plant response rating 0 to 10
morningglory = format: in vivo, Ipomoea hederacea; details: for Plant response rating, Morningglory: 0 to 10 scale
Summary of the method: (§1)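 Test chemicals, dissolved in a non-phytotoxic solvent, were applied to soil at planting and, at the same time, over foliage of seedlings at the one to four leaf stage.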

corn = format: in vivo, Zea mays; details: for Plant response rating, Corn: 0 to 10 scale
Summary of the method: as §1

wild oat = format: in vivo, Avena fatua; details: for Plant response rating, Wild oat: 0 to 10 scale
Summary of the method: as §1

soybean = format: in vivo, Glycine max; details: for Plant response rating, Soybean: 0 to 10 scale
Summary of the method: as §1

barley = format: in vivo, Hordeum vulgare; details: for Plant response rating, Barley: 0 to 10 scale
Summary of the method: as §1

rape = format: in vivo, Brassica napus; details: for Plant response rating, Rape: 0 to 10 scale
Summary of the method: as §1

rice = format: in vivo, Oryza sativa; details: for Plant response rating, Rice: 0 to 10 scale
Summary of the method: as §1

cocklebur = format: in vivo, Xanthium pensylvanicum; details: for Plant response rating, Cocklebur: Rate 50 g/ha, 0 to 10 scale
Summary of the method: as §1

blackgrass = format: in vivo, Alopecurus myosuroides; details: for Plant response rating, Blackgrass: 0 to 10 scale
Summary of the method: as §1

cheatgrass = format: in vivo, Bromus secalinus; details: for Plant response rating, Cheatgrass: 0 to 10 scale
Summary of the method: as §1

chickweed = format: in vivo, Stellaria media; details: for Plant response rating, Chickweed: 0 to 10 scale
Summary of the method: as §1

crabgrass = format: in vivo, Digitaria spp.; details: for Plant response rating, Crabgrass: 0 to 10 scale
Summary of the method: as §1

wild buckwheat = format: in vivo, Polygonum convolvulus; details: for Plant response rating, Wild buckwheat: 0 to 10 scale
Summary of the method: as §1

lambsquarters = format: in vivo, Chenopodium album; details: for Plant response rating, Lambsquarter: 0 to 10 scale
Summary of the method: as §1

bedstraw = format: in vivo, Galium aparine; details: for Plant response rating, Bedstraw: 0 to 10 scale
Summary of the method: as §1

cotton = format: in vivo, Gossypium hirsutum; details: for Plant response rating, Cotton: 0 to 10 scale
Summary of the method: as §1

sorghum = format: in vivo, Sorghum bicolor; details: for Plant response rating, Sorghum: 0 to 10 scale
Summary of the method: as §1

wheat = format: in vivo, Triticum aestivum; details: for Plant response rating, Wheat: 0 to 10 scale
Summary of the method: as §1

velvetleaf = format: in vivo, Abutilon theophrasti; details: for Plant response rating, Velvetleaf: 0 to 10 scale
Summary of the method: as §1

barnyardgrass = format: in vivo, Echinochloa crus-galli; details: for Plant response rating, Barnyardgrass: 0 to 10 scale
Summary of the method: as §1

giant foxtail = format: in vivo, Setaria faberii; details: for Plant response rating, Giant foxtail: 0 to 10 scale
Summary of the method: as §1

purple nutsedge = format: in vivo, Cyperus rotundus; details: for Plant response rating, Nutsedge: 0 to 10 scale
Summary of the method: as §1

sugar beet = format: in vivo, Beta vulgaris; details: for Plant response rating, Sugar beet: 0 to 10 scale
Summary of the method: as §1

Structure (SMILES): FCCCOc1cc(-c2nn3c(c2Cl)CCCC3)c(F)cc1Cl [Compound 79]
- Plant response rating, Morningglory (morningglory; POSTEMERGENCE, Rate 50 g/ha): 10
- Plant response rating, Morningglory (morningglory; PREEMERGENCE, Rate 50 g/ha): 0
- Plant response rating (0 to 10 scale), Morningglory (morningglory; PREEMERGENCE, Rate 200 g/ha): 7
- Plant response rating, Morningglory (morningglory; Rate 200 g/ha, POSTEMERGENCE): 10
- Plant response rating, Corn (corn; POSTEMERGENCE, Rate 50 g/ha): 3
- Plant response rating, Corn (corn; PREEMERGENCE, Rate 50 g/ha): 0
- Plant response rating (0 to 10 scale), Corn (corn; PREEMERGENCE, Rate 200 g/ha): 0
- Plant response rating, Corn (corn; Rate 200 g/ha, POSTEMERGENCE): 5
- Plant response rating, Wild oat (wild oat; POSTEMERGENCE, Rate 50 g/ha): 4
- Plant response rating, Wild oat (wild oat; PREEMERGENCE, Rate 50 g/ha): 3
- Plant response rating (0 to 10 scale), Wild oat (wild oat; PREEMERGENCE, Rate 200 g/ha): 6
- Plant response rating, Wild oat (wild oat; Rate 200 g/ha, POSTEMERGENCE): 5
- Plant response rating, Soybean (soybean; POSTEMERGENCE, Rate 50 g/ha): 7
- Plant response rating, Soybean (soybean; PREEMERGENCE, Rate 50 g/ha): 0
- Plant response rating (0 to 10 scale), Soybean (soybean; PREEMERGENCE, Rate 200 g/ha): 0
- Plant response rating, Soybean (soybean; Rate 200 g/ha, POSTEMERGENCE): 8
- Plant response rating, Barley (barley; POSTEMERGENCE, Rate 50 g/ha): 4
- Plant response rating, Barley (barley; PREEMERGENCE, Rate 50 g/ha): 0
- Plant response rating (0 to 10 scale), Barley (barley; PREEMERGENCE, Rate 200 g/ha): 2
- Plant response rating, Barley (barley; Rate 200 g/ha, POSTEMERGENCE): 4
- Plant response rating, Rape (rape; POSTEMERGENCE, Rate 50 g/ha): 8
- Plant response rating, Rape (rape; PREEMERGENCE, Rate 50 g/ha): 3
- Plant response rating (0 to 10 scale), Rape (rape; PREEMERGENCE, Rate 200 g/ha): 6
- Plant response rating, Rape (rape; Rate 200 g/ha, POSTEMERGENCE): 9
- Plant response rating, Rice (rice; POSTEMERGENCE, Rate 50 g/ha): 5
- Plant response rating, Rice (rice; PREEMERGENCE, Rate 50 g/ha): 0
- Plant response rating (0 to 10 scale), Rice (rice; PREEMERGENCE, Rate 200 g/ha): 0
- Plant response rating, Rice (rice; Rate 200 g/ha, POSTEMERGENCE): 6
- Plant response rating, Cocklebur (cocklebur; POSTEMERGENCE): 8
- Plant response rating, Cocklebur (cocklebur; PREEMERGENCE): 0
- Plant response rating (0 to 10 scale), Cocklebur (cocklebur; PREEMERGENCE, Rate 200 g/ha): 6
- Plant response rating, Blackgrass (blackgrass; POSTEMERGENCE, Rate 50 g/ha): 3
- Plant response rating, Blackgrass (blackgrass; PREEMERGENCE, Rate 50 g/ha): 1
- Plant response rating (0 to 10 scale), Blackgrass (blackgrass; PREEMERGENCE, Rate 200 g/ha): 5
- Plant response rating, Blackgrass (blackgrass; Rate 200 g/ha, POSTEMERGENCE): 5
- Plant response rating, Cheatgrass (cheatgrass; POSTEMERGENCE, Rate 50 g/ha): 3
- Plant response rating, Cheatgrass (cheatgrass; PREEMERGENCE, Rate 50 g/ha): 2
- Plant response rating (0 to 10 scale), Cheatgrass (cheatgrass; PREEMERGENCE, Rate 200 g/ha): 4
- Plant response rating, Cheatgrass (cheatgrass; Rate 200 g/ha, POSTEMERGENCE): 4
- Plant response rating, Chickweed (chickweed; POSTEMERGENCE, Rate 50 g/ha): 4
- Plant response rating, Chickweed (chickweed; PREEMERGENCE, Rate 50 g/ha): 0
- Plant response rating (0 to 10 scale), Chickweed (chickweed; PREEMERGENCE, Rate 200 g/ha): 3
- Plant response rating, Chickweed (chickweed; Rate 200 g/ha, POSTEMERGENCE): 5
- Plant response rating, Crabgrass (crabgrass; POSTEMERGENCE, Rate 50 g/ha): 3
- Plant response rating, Crabgrass (crabgrass; PREEMERGENCE, Rate 50 g/ha): 4
- Plant response rating (0 to 10 scale), Crabgrass (crabgrass; PREEMERGENCE, Rate 200 g/ha): 6
- Plant response rating, Crabgrass (crabgrass; Rate 200 g/ha, POSTEMERGENCE): 5
- Plant response rating, Wild buckwheat (wild buckwheat; POSTEMERGENCE, Rate 50 g/ha): 10
- Plant response rating, Wild buckwheat (wild buckwheat; PREEMERGENCE, Rate 50 g/ha): 0
- Plant response rating (0 to 10 scale), Wild buckwheat (wild buckwheat; PREEMERGENCE, Rate 200 g/ha): 9
- Plant response rating, Wild buckwheat (wild buckwheat; Rate 200 g/ha, POSTEMERGENCE): 10
- Plant response rating, Lambsquarter (lambsquarters; POSTEMERGENCE, Rate 50 g/ha): 9
- Plant response rating, Lambsquarter (lambsquarters; PREEMERGENCE, Rate 50 g/ha): 9
- Plant response rating (0 to 10 scale), Lambsquarter (lambsquarters; PREEMERGENCE, Rate 200 g/ha): 10
- Plant response rating, Lambsquarter (lambsquarters; Rate 200 g/ha, POSTEMERGENCE): 10
- Plant response rating, Bedstraw (bedstraw; POSTEMERGENCE, Rate 50 g/ha): 5
- Plant response rating, Bedstraw (bedstraw; PREEMERGENCE, Rate 50 g/ha): 2
- Plant response rating (0 to 10 scale), Bedstraw (bedstraw; PREEMERGENCE, Rate 200 g/ha): 7
- Plant response rating, Bedstraw (bedstraw; Rate 200 g/ha, POSTEMERGENCE): 7
- Plant response rating, Cotton (cotton; POSTEMERGENCE, Rate 50 g/ha): 10
- Plant response rating, Cotton (cotton; PREEMERGENCE, Rate 50 g/ha): 0
- Plant response rating (0 to 10 scale), Cotton (cotton; PREEMERGENCE, Rate 200 g/ha): 0
- Plant response rating, Cotton (cotton; Rate 200 g/ha, POSTEMERGENCE): 10
- Plant response rating, Sorghum (sorghum; POSTEMERGENCE, Rate 50 g/ha): 6
- Plant response rating, Sorghum (sorghum; PREEMERGENCE, Rate 50 g/ha): 0
- Plant response rating (0 to 10 scale), Sorghum (sorghum; PREEMERGENCE, Rate 200 g/ha): 0
- Plant response rating, Sorghum (sorghum; Rate 200 g/ha, POSTEMERGENCE): 7
- Plant response rating, Wheat (wheat; POSTEMERGENCE, Rate 50 g/ha): 5
- Plant response rating, Wheat (wheat; PREEMERGENCE, Rate 50 g/ha): 0
- Plant response rating (0 to 10 scale), Wheat (wheat; PREEMERGENCE, Rate 200 g/ha): 2
- Plant response rating, Wheat (wheat; Rate 200 g/ha, POSTEMERGENCE): 6
- Plant response rating, Velvetleaf (velvetleaf; POSTEMERGENCE, Rate 50 g/ha): 8
- Plant response rating, Velvetleaf (velvetleaf; PREEMERGENCE, Rate 50 g/ha): 5
- Plant response rating (0 to 10 scale), Velvetleaf (velvetleaf; PREEMERGENCE, Rate 200 g/ha): 10
- Plant response rating, Velvetleaf (velvetleaf; Rate 200 g/ha, POSTEMERGENCE): 10
- Plant response rating, Barnyardgrass (barnyardgrass; POSTEMERGENCE, Rate 50 g/ha): 4
- Plant response rating, Barnyardgrass (barnyardgrass; PREEMERGENCE, Rate 50 g/ha): 3
- Plant response rating (0 to 10 scale), Barnyardgrass (barnyardgrass; PREEMERGENCE, Rate 200 g/ha): 6
- Plant response rating, Barnyardgrass (barnyardgrass; Rate 200 g/ha, POSTEMERGENCE): 7
- Plant response rating, Giant foxtail (giant foxtail; POSTEMERGENCE, Rate 50 g/ha): 4
- Plant response rating, Giant foxtail (giant foxtail; PREEMERGENCE, Rate 50 g/ha): 3
- Plant response rating (0 to 10 scale), Giant foxtail (giant foxtail; PREEMERGENCE, Rate 200 g/ha): 9
- Plant response rating, Giant foxtail (giant foxtail; Rate 200 g/ha, POSTEMERGENCE): 6
- Plant response rating, Nutsedge (purple nutsedge; POSTEMERGENCE, Rate 50 g/ha): 0
- Plant response rating, Nutsedge (purple nutsedge; PREEMERGENCE, Rate 50 g/ha): 0
- Plant response rating (0 to 10 scale), Nutsedge (purple nutsedge; PREEMERGENCE, Rate 200 g/ha): 0
- Plant response rating, Nutsedge (purple nutsedge; Rate 200 g/ha, POSTEMERGENCE): 0
- Plant response rating, Sugar beet (sugar beet; POSTEMERGENCE, Rate 50 g/ha): 10
- Plant response rating, Sugar beet (sugar beet; PREEMERGENCE, Rate 50 g/ha): 9
- Plant response rating (0 to 10 scale), Sugar beet (sugar beet; PREEMERGENCE, Rate 200 g/ha): 10
- Plant response rating, Sugar beet (sugar beet; Rate 200 g/ha, POSTEMERGENCE): 10
